Data taken from patent publication US5342840A, “Cyclopropane derivative” (Ajinomoto Co., Inc., priority 1991, dated 1994).
In brackets after ≈: the same amount, converted by molar mass.

Tests used:
HSV-2 (strain 186) = test: Anti-herpes activity, plaque-reduction assay in Vero cells, HSV-2 (strain 186); format: cell-based; conditions: Human alphaherpesvirus 2, 168 h; HSV-2 strain 186, Vero cells, 7 days at 37° C.; read-out: ID50 HSV-2 (concentration of compound causing 50% inhibition of plaque formation)
Procedure: (§1) Anti-herpes activity was measured in a plaque-reduction assay (Lopez, C. et al., J. Antimicrob. Agents Chemother., 17, 803 (1980). Confluent monolayers of Vero cells in 6-well plates were infected with 100 plaque forming units of either HSV-1 (strain KOS) or HSV-2 (strain 186). The infected monolayers were incubated at 37° C. for 1 hour and then overlaid with maintenance medium containing 1% agarose and various concentrations of test compounds. The monolayers were incubated for a further 7 days at 37° C., after which the cells were fixed and stained, the plaques were counted, and the concentration of compound causing 50% inhibition of plaque formation was calculated.

HSV-1 (strain KOS) = test: Anti-herpes activity, plaque-reduction assay in Vero cells, HSV-1 (strain KOS); format: cell-based; conditions: Human alphaherpesvirus 1, 168 h, 7 days at 37° C., read-out: ID50 HSV-1 (concentration of compound causing 50% inhibition of plaque formation)
Procedure: as §1

IC50 (HSV-2 (strain 186)) [µg/mL] | IC50 (HSV-1 (strain KOS)) [µg/mL] | SMILES
0.42 (≈ 1.58 µM) | 0.046 (≈ 0.173 µM) | Nc1nc2c(ncn2C[C@]2(CO)C[C@H]2CO)c(=O)[nH]1 (relative stereo)
 | 34 (≈ 120 µM) | Nc1nc(Cl)c2ncn(CC3(CO)CC3CO)c2n1 (stereo not shown)
 | 10.4 (≈ 39.2 µM) | Nc1nc2c(ncn2C[C@]2(CO)C[C@@H]2CO)c(=O)[nH]1 (relative stereo)
0.4 (≈ 1.78 µM) | 0.57 (≈ 2.53 µM) | Nc1nc2c(ncn2COCCO)c(=O)[nH]1 [Acyclovir, reference compound]
 | 47 (≈ 189 µM) | Nc1ncnc2c1ncn2CC1(CO)CC1CO (stereo not shown)
0.24 (≈ 0.905 µM) | 0.023 (≈ 0.0867 µM) | Nc1nc2c(ncn2C[C@]2(CO)C[C@H]2CO)c(=O)[nH]1 [Example 20, (-)-9-[1'S,2'R-bis(hydroxymethyl)cyclopropan-1'yl]methylguanine]
 | 120 (≈ 533 µM) | Nc1ccn(CC2(CO)CC2CO)c(=O)n1 (stereo not shown)
